This note sets out measurements from US20220340597A1, “HEXAHYDRO-1H-PYRAZINO[1,2-A]PYRAZINE COMPOUNDS FOR THE TREATMENT OF AUTOIMMUNE DISEASE” (Hoffmann-La Roche Inc., priority 2019, published 2022).

For one assay, the target named is T1, human TLR8 (Homo sapiens, UniProt Q9NR97).
T1 sequence (Q9NR97 27-1041): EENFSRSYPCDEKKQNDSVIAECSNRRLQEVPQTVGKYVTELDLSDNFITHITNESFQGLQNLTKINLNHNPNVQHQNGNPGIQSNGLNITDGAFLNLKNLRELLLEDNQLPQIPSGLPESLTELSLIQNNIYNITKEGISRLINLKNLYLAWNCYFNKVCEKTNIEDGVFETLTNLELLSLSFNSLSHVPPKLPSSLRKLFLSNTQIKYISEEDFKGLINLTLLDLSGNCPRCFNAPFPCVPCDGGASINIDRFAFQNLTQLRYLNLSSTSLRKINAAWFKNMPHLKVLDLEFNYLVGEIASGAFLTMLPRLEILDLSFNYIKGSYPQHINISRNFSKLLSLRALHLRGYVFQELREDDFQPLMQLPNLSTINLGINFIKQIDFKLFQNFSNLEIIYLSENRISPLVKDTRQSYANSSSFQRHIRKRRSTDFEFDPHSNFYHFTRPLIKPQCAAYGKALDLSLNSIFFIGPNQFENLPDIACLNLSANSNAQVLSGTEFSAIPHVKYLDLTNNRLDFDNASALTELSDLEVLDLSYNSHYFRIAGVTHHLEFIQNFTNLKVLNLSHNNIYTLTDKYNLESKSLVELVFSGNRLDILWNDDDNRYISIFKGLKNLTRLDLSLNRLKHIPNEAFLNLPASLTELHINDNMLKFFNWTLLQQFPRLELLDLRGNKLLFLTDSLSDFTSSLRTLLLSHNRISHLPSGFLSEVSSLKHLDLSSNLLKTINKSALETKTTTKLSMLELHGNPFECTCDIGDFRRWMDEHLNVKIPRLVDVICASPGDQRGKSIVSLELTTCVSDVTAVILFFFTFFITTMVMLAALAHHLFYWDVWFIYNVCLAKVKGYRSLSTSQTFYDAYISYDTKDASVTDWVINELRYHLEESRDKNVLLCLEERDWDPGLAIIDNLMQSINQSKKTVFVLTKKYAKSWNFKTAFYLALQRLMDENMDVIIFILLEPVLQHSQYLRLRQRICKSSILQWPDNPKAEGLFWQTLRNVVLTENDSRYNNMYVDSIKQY
Put plainly: HEK293-Blue-hTLR-8 cells assay.

For the next assay, the target named is T2, human TLR9 (Homo sapiens, UniProt Q9NR96).
T2 construct: host or cells: HEK293 (HEK-Blue hTLR9)
T2 sequence (Q9NR96 26-1032): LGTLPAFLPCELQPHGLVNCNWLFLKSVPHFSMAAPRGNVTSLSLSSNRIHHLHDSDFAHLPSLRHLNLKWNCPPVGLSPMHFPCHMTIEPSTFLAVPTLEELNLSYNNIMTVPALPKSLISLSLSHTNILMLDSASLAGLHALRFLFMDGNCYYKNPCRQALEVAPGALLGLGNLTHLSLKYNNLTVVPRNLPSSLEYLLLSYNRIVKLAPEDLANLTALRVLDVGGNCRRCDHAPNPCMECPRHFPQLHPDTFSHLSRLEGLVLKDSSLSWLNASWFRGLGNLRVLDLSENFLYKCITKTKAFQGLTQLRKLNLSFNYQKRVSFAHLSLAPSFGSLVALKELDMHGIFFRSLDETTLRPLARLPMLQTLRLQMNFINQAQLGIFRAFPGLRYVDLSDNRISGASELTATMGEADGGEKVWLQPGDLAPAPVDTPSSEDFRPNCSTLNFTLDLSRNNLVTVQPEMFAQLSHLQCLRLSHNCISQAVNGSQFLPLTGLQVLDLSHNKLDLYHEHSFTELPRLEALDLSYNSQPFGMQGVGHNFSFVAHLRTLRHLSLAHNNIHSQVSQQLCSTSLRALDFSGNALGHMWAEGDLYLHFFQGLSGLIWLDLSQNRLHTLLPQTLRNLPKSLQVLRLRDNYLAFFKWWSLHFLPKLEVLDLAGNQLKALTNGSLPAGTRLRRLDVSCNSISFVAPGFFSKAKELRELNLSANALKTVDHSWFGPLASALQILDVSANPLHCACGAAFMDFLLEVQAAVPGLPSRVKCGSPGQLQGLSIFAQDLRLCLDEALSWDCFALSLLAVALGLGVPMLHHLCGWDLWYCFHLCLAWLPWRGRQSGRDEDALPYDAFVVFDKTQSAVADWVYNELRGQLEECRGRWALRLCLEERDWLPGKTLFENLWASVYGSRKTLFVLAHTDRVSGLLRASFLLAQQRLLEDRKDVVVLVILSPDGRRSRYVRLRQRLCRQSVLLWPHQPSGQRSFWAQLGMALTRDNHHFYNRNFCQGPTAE
As to the kind of experiment: HEK293-Blue-hTLR-9 cells assay. It is filed as cell-based. Particulars: HEK293-Blue-hTLR9 cells, ODN2006 stimulation, 20 hrs, SEAP reporter; read-out: HEK/hTLR9 IC50.

Molecules are shown by their SMILES. Bounds are passed on as bounds.

Protocol for human TLR8: The following tests were carried out in order to determine the activity of the compounds of formula (I) and (Ia) in HEK293-Blue-hTLR-7/8/9 cells assay.
HEK293-Blue-hTLR-8 Cells Assay:
A stable HEK293-Blue-hTLR-8 cell line was purchased from InvivoGen (Cat. #: hkb-htlr8, San Diego, Calif., USA). These cells were originally designed for studying the stimulation of human TLR8 by monitoring the activation of NF-κB. A SEAP (secreted embryonic alkaline phosphatase) reporter gene was placed under the control of the IFN-β minimal promoter fused to five NF-κB and AP-1-binding sites. The SEAP was induced by activating NF-κB and AP-1 via stimulating HEK-Blue hTLR8 cells with TLR8 ligands. Therefore, the reporter expression was declined by TLR8 antagonist under the stimulation of a ligand, such as R848, for incubation of 20 hrs. The cell culture supernatant SEAP reporter activity was determined using QUANTI-Blue™ kit (Cat. #: rep-qb1, Invivogen, San Diego, Calif., USA) at a wavelength of 640 nm, a detection medium that turns purple or blue in the presence of alkaline phosphatase.

As to `C[C@@H]1CN(c2ccc(C#N)c3ncccc23)C[C@@H]2CN(CCc3ccc(N4C[C@@H](N)[C@@H](F)C4)cn3)CCN21` [Example 19, 5-[(4R,9aS)-8-[2-[5-[(3R,4S)-3-amino-4-fluoro-pyrrolidin-1-yl]-2-pyridyl]ethyl]-4-methyl-3,4,6,7,9,9a-hexahydro-1H-pyrazino[1,2-a]pyrazin-2-yl]quinoline-8-carbonitrile], the IC50 against human TLR8 came out at 31 nM; at human TLR9, 48 nM.

On to `C[C@@H]1CN(c2ccc(C#N)c3ncccc23)C[C@@H]2CN(c3ccnc(N4CC[C@@](C)(N)C4)c3)CCN21` [Example 105, 5-[(4R,9aS)-8-[2-[(3R)-3-amino-3-methyl-pyrrolidin-1-yl]-4-pyridyl]-4-methyl-3,4,6,7,9,9a-hexahydro-1H-pyrazino[1,2-a]pyrazin-2-yl]quinoline-8-carbonitrile], for which the IC50 against human TLR8 is 7 nM; at human TLR9, less than 32 nM.

With `[2H]c1ccc2c(N3C[C@@H]4CN(Cc5ccc6c(c5)CNCC6)CCN4[C@H](C)C3)ccc(C#N)c2n1` [Example 61, 5-[(4R,9aS)-4-methyl-8-(1,2,3,4-tetrahydroisoquinolin-7-ylmethyl)-3,4,6,7,9,9a-hexahydro-1H-pyrazino[1,2-a]pyrazin-2-yl]-2-deuterio-quinoline-8-carbonitrile], the results for the IC50 on human TLR8 and on human TLR9 were 8 nM and 64 nM, respectively.

For the molecule `CO[C@@H]1CN(c2ccnc(N3CCN4[C@@H](C3)CN(c3ccc(C#N)c5ncccc35)C[C@H]4C)n2)C[C@H]1N` [Example 37, 5-[(4R,9aR)-8-[4-[(3R,4R)-3-amino-4-methoxy-pyrrolidin-1-yl]pyrimidin-2-yl]-4-methyl-3,4,6,7,9,9a-hexahydro-1H-pyrazino[1,2-a]pyrazin-2-yl]quinoline-8-carbonitrile], the IC50 against human TLR8 came out at 26 nM; at human TLR9, 62 nM.

Consider `C[C@@H]1CN(c2ccc(C#N)c3ncccc23)C[C@@H]2CN(c3ccnc(N4CC(N)C4)c3)CCN21` [Example 41, 5-[(4R,9aS)-8-[2-(3-aminoazetidin-1-yl)-4-pyridyl]-4-methyl-3,4,6,7,9,9a-hexahydro-1H-pyrazino[1,2-a]pyrazin-2-yl]quinoline-8-carbonitrile], for which the IC50 against human TLR8 came to 7 nM; at human TLR9, 45 nM.

Take `[2H]c1ccc2c(N3C[C@@H]4CN(CCc5ccc(N6CC7(CN(C)C7)C6)nc5)CCN4[C@H](C)C3)ccc(C#N)c2n1` [Example 64, 5-[(4R,9aS)-4-methyl-8-[2-[6-(6-methyl-2,6-diazaspiro[3.3]heptan-2-yl)-3-pyridyl]ethyl]-3,4,6,7,9,9a-hexahydro-1H-pyrazino[1,2-a]pyrazin-2-yl]-2-deuterio-quinoline-8-carbonitrile]: the IC50 on human TLR8 and on human TLR9 was 32 nM each time.

As to `C[C@@H]1CN(c2ccc(C#N)c3ncccc23)C[C@@H]2CN(Cc3ccc(N4CCCNCC4)nc3)CCN21` [Example 15, 5-[(4R,9aS)-8-[[6-(1,4-diazepan-1-yl)-3-pyridyl]methyl]-4-methyl-3,4,6,7,9,9a-hexahydro-JH-pyrazino[1,2-a]pyrazin-2-yl]quinoline-8-carbonitrile], the IC50 against human TLR8 was found to be 28 nM; on human TLR9, 41 nM.

`C[C@@H]1CN(c2ccc(C#N)c3ncccc23)C[C@@H]2CN(Cc3ccc4c(c3)CNCC4)CCN21` [Example 5, 5-[(4R,9aS)-4-methyl-8-(1,2,3,4-tetrahydroisoquinolin-7-ylmethyl)-3,4,6,7,9,9a-hexahydro-1H-pyrazino[1,2-a]pyrazin-2-yl]quinoline-8-carbonitrile]: the IC50 on human TLR8 was 12 nM; at human TLR9, less than 32 nM.

Take `C[C@@H]1CN(c2ccc(C#N)c3ncccc23)C[C@@H]2CN(c3nccc(N4CCNCC4)n3)CCN21` [Example 30, 5-[(4R,9aR)-4-methyl-8-(4-piperazin-1-ylpyrimidin-2-yl)-3,4,6,7,9,9a-hexahydro-1H-pyrazino[1,2-a]pyrazin-2-yl]quinoline-8-carbonitrile]: the results for the IC50 at human TLR8 and on human TLR9 were 21 nM and 72 nM, respectively.
